Data from patent publication US20190240296A1, “TREATMENT OF DISEASES MEDIATED BY VASCULAR HYPERPERMEABILITY” (AMPIO PHARMACEUTICALS, INC., priority 2016, published 2019).

System: acetylated α-tubulin in HREC
Assay: Immunofluorescence staining for acetylated α-tubulin in HREC
Type: cell-based, human
Conditions: 3 hours
Description: HREC were grown on glass bottom 24-well tissue culture plates (Cellvis, Mountain View, Calif.) coated with 2% gelatin in EGM-2. The medium was then exchanged with a combination of 500 μL saline, 2× working dilutions of compounds to be tested prepared in saline, or LMWFHSA together with 500 μl EGM-2 and incubated for the indicated times. Following treatment, the cells were fixed using 10% neutral buffered formalin for 10 minutes and permeabilized with 0.1% Triton X-100 in PBS for 5 minutes. 4% goat serum (ThermoFisher Scientific) prepared in PBS was used to block the cells for 1 hour then the cells were exposed to anti-acetylated α-tubulin clone 6-11B-1 antibody (1:1000; Santa Cruz Biotechnology, Santa Cruz, Calif.) in blocking solution overnight at 4° C. Alexa fluor 488 conjugated anti-mouse IgG (1:1000; Invitrogen, Carlsbad, Calif.) was then added for 1 hour followed by DAPI counter staining (300 nM in PBS; ThermoFisher Scientific) for 5 minutes. Randomly selected frames were photographed on an inverted microscope (Zyla sCMOS camera; Andor, South Windsor, Conn. and eclipse Ti; Nikon, Melville, N.Y.) and fluorescent intensity measured using ImageJ software (http://imagej.nih.gov/ij) (Schneider C A, et al. NIH Image to ImageJ: 25 years of image analysis. Nature methods 2012; 9:671-675). For normalization, the number of DAPI staining nuclei was determined for each frame and data presented as median FU/DAPI objects.

| Structure (SMILES) | inhibition at 10 µM (Homo sapiens, 10 μM LY294002 with LMWFHSA, four experiments in triplicate, 95% CI 29-19, read-out: reduction of LMWFHSA-induced α-tubulin acetylation (percent inhibition)) | increase of α-tubulin acetylation versus saline-DMSO controls (10 μM SB203580 with LMWFHSA, 95% CI 63-51) | increase of α-tubulin acetylation versus LMWF5A-DMSO treated cells (10 μM SB203580 with LMWFHSA, 95% CI 236-208) |
| --- | --- | --- | --- |
| O=c1cc(N2CCOCC2)oc2c(-c3ccccc3)cccc12 [LY294002] | 24% | – | – |
| C[S+]([O-])c1ccc(-c2nc(-c3ccncc3)c(-c3ccc(F)cc3)[nH]2)cc1 (stereo not drawn) [SB203580] | – | 57% | 222% |
